According to ChEMBL document CHEMBL5154636, “Discovery of STAT3 and Histone Deacetylase (HDAC) Dual-Pathway Inhibitors for the Treatment of Solid Cancer” (J Med Chem, 2021):

What was measured:
MDA-MB-231 = test: Cytotoxicity against human MDA-MB-231 cells assessed as reduction in cell viability incubated for 48 hrs by MTT assay; type: functional, cell-based; conditions: MDA-MB-231, 48 h
HCT-116 = test: Cytotoxicity against human HCT-116 cells assessed as reduction in cell viability incubated for 48 hrs by MTT assay; type: functional, cell-based; conditions: HCT-116, 48 h
MCF-10A = test: Cytotoxicity against human MCF-10 A cells assessed as reduction in cell viability at 32 uM incubated for 48 hrs by MTT assay relative to control; type: toxicity, cell-based
[1] = Acute toxicity in po dosed ICR mouse assessed as maximum tolerated dose measured after 7 days; type: organism-based; conditions: in vivo, time 7 day
L02 = test: Cytotoxicity against human L02 cells assessed as reduction in cell viability at 32 uM incubated for 48 hrs by MTT assay relative to control; type: toxicity, cell-based; conditions: l02, 48 h

COc1cc(/C=C/c2ccc(OCc3cccc(C(=O)NO)c3)cc2)cc(OC)c1
IC50 (MDA-MB-231): 9.22 µM | IC50 (HCT-116): 13.7 µM

COc1cc(/C=C/c2ccc(OCCCCC(=O)NO)cc2)cc(OC)c1
IC50 (MDA-MB-231): 4.21 µM | IC50 (HCT-116): 3.35 µM

COc1cc(/C=C/c2ccc(OCc3ccc(C(=O)NO)cc3)cc2)cc(OC)c1
IC50 (MDA-MB-231): 6.88 µM | IC50 (HCT-116): 10.4 µM

COc1cc(/C=C/c2ccc(O)cc2)cc(OC)c1 [PTEROSTILBENE]
Activity (MCF-10A): Non-Toxic | IC50 (MDA-MB-231): 31.2 µM | MTD at 168 h [1]: > 400 mg/kg | Activity (L02): Non-Toxic | IC50 (HCT-116): 34.1 µM

COc1cc(/C=C/c2ccc(OCCCC(=O)NO)cc2)cc(OC)c1
IC50 (MDA-MB-231): 3.89 µM | IC50 (HCT-116): 5.2 µM

COc1cc(/C=C/c2ccc(OCCc3cn(CC(=O)NO)nn3)cc2)cc(OC)c1
IC50 (MDA-MB-231): 6.52 µM | IC50 (HCT-116): 7.44 µM

O=C(CCCCCCC(=O)Nc1ccccc1)NO [VORINOSTAT]
Activity (MCF-10A): 24% | MTD at 168 h [1]: > 400 mg/kg | Activity (L02): 26%

COc1cc(/C=C/c2ccc(OCCCCCCCC(=O)NO)cc2)cc(OC)c1
IC50 (MDA-MB-231): 5.05 µM | IC50 (HCT-116): 12.6 µM

COc1cc(/C=C/c2ccc(OCc3ccccc3C(=O)NO)cc2)cc(OC)c1
IC50 (MDA-MB-231): 7.18 µM | IC50 (HCT-116): 13.9 µM

COc1cc(/C=C/c2ccc(OCCCCCC(=O)NO)cc2)cc(OC)c1
IC50 (MDA-MB-231): 3.56 µM | IC50 (HCT-116): 4.1 µM

COc1cc(/C=C/c2ccc(OCCN3CCN(CC(=O)NO)CC3)cc2)cc(OC)c1
IC50 (MDA-MB-231): 7.42 µM | IC50 (HCT-116): 8.87 µM

COc1cc(/C=C/c2ccc(NCc3ccc(/C=C/C(=O)NO)cc3)cc2)cc(OC)c1
IC50 (MDA-MB-231): 5.95 µM | IC50 (HCT-116): 11.2 µM
